US20090018175A1, “Pharmaceutical excipient complex” (priority 2007, published 2009)
Where two headings read alike, the source gives them in different places.

Tests used:
[1] = Stability of the tablet produced according to Example 5 (impurity content on storage); format: physicochemical; conditions: tablet of Example 5, four days at 70° C., 100 percent relative humidity
Method: As used herein, the term “stable” with reference to candesartan cilexetil relates to candesartan cilexetil having about 0.01% to about 0.5% of desethyl-candesartan (“desethyl-CNS”) impurity present in the total weight of the composition, after storage for four days at a temperature of 65° C. and a relative humidity of 100 percent; and/or having about 0.01% to about 0.5% of 2-N-ethyl candesartan (“2-N-ethyl CNS”) impurity present in the total weight of the composition, after storage for four days at a temperature of 65° C. and a relative humidity of 100 percent; and/or having about 0.01% to about 0.2% of impurities other than desethyl-CNS and 2-N-ethyl CNS present in the total weight of the composition, after storage for four days at a temperature of 65° C. and a relative humidity of 100 percent.

[2] = cited from earlier work

- degradation of candesartan cilexetil when tabletted with the excipient complex (conclusion) [1]: did not degrade significantly
Structure (SMILES): CCOc1nc2cccc(C(=O)OC(C)OC(=O)OC3CCCCC3)c2n1Cc1ccc(-c2ccccc2-c2nnn[nH]2)cc1 (racemic) [candesartan cilexetil, (±)-1-[[(cyclohexyloxy)carbonyl]oxy]ethyl-2-ethoxy-1-[[2′-(1H-tetrazol-5-yl)[1,1′biphenyl]-4-yl]methyl]-1H-benzimidazole-7-carboxylate]
- solubility ([2]; in methanol): sparingly soluble
- solubility ([2]; in water): sparingly soluble
